IC50, inhibition and activity data for 20 compounds are collected here from the Kinase Knowledgebase extract (Sharma et al. 2016).

For one experiment, the target named is EGFR (Hamster) (UniProt P00533). The settings on record: er22.
Experiment [1] deals with MAPK14 (human) (UniProt Q16539). The experiment in a line: p38-mediated IL-1 Inhibition (LPS-Stimulated PBMCs). The settings on record: pbmc.
The target is the same in experiment [2]. Nature of the experiment: p38-mediated TNF-Inhibition (LPS-Stimulated PBMCs). Conditions: pbmc.
Experiment [3] addresses CDK2 (human) (UniProt P24941). Nature of the experiment: Enzyme Assay.
Experiment [4] deals with CDK2 (human) (UniProt P24941). The experiment in a line: Enzyme Assay. This is another data set of the same source.
In experiment [5] the target is EGFR (human) (UniProt P00533).
Experiment [6] addresses PIK3CA (human) (UniProt P42336). Nature of the experiment: Enzyme Assay.
Experiment [7] concerns the target PIK3CB (Human) (UniProt P42338). Nature of the experiment: Enzyme Assay.
For experiment [8], the target named is PIK3CD (Human) (UniProt O00329). Nature of the experiment: Enzyme Assay.
For experiment [9], the target named is PIK3CG (human) (UniProt P48736). The experiment in a line: Enzyme Assay.
Experiment [10] addresses PIK3CD (Human) (UniProt O00329). The experiment in a line: Cell-Based Assay. The settings on record: raji.
In experiment [11] the target is PIK3CG (human) (UniProt P48736). Nature of the experiment: Inhibition of PIK3CG Kinase Activity.
Experiment [12] concerns the target PIK3CD (Human) (UniProt O00329). Nature of the experiment: Inhibition of PIK3CD Kinase Activity.
In experiment [13] the target is PIK3CB (Human) (UniProt P42338). The experiment in a line: Inhibition of PIK3CB Kinase Activity.
Experiment [14] addresses PIK3CD (Human) (UniProt O00329). Nature of the experiment: Cellular Inhibition of PIK3CD Kinase in Raji (Burkitt’s Lymphoma) Cells.
In experiment [15] the target is ROCK2 (human) (UniProt O75116). The experiment in a line: Inhibition of ROCK2 Kinase Activity.
In experiment [16] the target is ROCK2 (human) (UniProt O75116). The experiment in a line: Inhibition of ROCK2 Kinase Activity (MLSCN Assay).
Experiment [17] has as its target PIK3CA (human), P42336 [Wild-Type]. Nature of the experiment: Assessment of Proliferation of NZB5 Cells Expressing Wild-Type PIK3CA Kinase.
Experiment [18] deals with PIK3CA (human), P42336 [Assessment of Proliferation of NZOV9 Cells Expressing PIK3CA (Mutant) Kinase]. Nature of the experiment: Assessment of Proliferation of NZOV9 Cells Expressing PIK3CA (Mutant) Kinase.
The target in experiment [19] is EGFR (UniProt P00533).
The target of experiment [20] is EGFR (human) (UniProt P00533). This is another data set of the same source.
Experiment [21] addresses EGFR (UniProt P00533). This is another data set of the same source.
Experiment [22] deals with EGFR (human), P00533 [WT].
The next experiment concerns MAPK14 (rat). The settings on record: dose or concentration not given here.
The target in experiment [23] is MAPK14 (UniProt Q16539).
Experiment [24] deals with MAPK14 (UniProt Q16539). The experiment in a line: p38 Kinase Inhibition.
Experiment [25] concerns the target MAPK14 (human) (UniProt Q16539). Nature of the experiment: p38-mediated TNF-alpha Inhibition (THP1 Cells).
The test system of experiment [26] is MAPK14 (sprague-dawley rat). Nature of the experiment: p38-mediated TNF-alpha Inhibition (Sprauge-Dawley Rats). Conditions: dose or concentration not given here.
Experiment [27] has as its target EGFR (UniProt P00533). The source holds these as a separate data set.
The target of experiment [28] is EGFR (human), P00533 [T790M]. Conditions: h1975.
Experiment [29] deals with PIK3CA (human) (UniProt P42336). The experiment in a line: Cellular Inhibition of PIK3CA Kinase in MDA-MB-453 Cells.
A further experiment concerns MAPK14 (OF1 mice). The experiment in a line: P38-mediated TNF-alpha Inhibition (OF1 Mice).
The target of experiment [30] is EGFR (UniProt P00533). This is another data set of the same source.
The target in experiment [31] is EGFR (Human), P00533 [T790M/L858R]. Conditions: h1975.
Experiment [32] has as its target PIK3CA (human), P42336 [H1047R]. Nature of the experiment: Assessment of PIK3CA(H1047R) Dependent Antiproliferative Activity in KPL-4 Cells.

Each structure is given as a SMILES string.

Sequence of MAPK14 (human) (Q16539 whole entry, looked up): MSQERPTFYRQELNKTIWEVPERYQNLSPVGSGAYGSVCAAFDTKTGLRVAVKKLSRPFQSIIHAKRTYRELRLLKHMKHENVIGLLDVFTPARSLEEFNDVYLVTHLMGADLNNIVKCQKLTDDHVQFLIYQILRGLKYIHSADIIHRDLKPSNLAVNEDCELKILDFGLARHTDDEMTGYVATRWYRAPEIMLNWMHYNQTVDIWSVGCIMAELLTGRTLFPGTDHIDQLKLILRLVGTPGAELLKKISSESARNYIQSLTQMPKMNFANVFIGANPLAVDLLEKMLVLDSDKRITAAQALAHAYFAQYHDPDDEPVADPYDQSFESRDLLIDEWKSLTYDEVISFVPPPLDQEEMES
Sequence of EGFR (P00533 whole entry, looked up): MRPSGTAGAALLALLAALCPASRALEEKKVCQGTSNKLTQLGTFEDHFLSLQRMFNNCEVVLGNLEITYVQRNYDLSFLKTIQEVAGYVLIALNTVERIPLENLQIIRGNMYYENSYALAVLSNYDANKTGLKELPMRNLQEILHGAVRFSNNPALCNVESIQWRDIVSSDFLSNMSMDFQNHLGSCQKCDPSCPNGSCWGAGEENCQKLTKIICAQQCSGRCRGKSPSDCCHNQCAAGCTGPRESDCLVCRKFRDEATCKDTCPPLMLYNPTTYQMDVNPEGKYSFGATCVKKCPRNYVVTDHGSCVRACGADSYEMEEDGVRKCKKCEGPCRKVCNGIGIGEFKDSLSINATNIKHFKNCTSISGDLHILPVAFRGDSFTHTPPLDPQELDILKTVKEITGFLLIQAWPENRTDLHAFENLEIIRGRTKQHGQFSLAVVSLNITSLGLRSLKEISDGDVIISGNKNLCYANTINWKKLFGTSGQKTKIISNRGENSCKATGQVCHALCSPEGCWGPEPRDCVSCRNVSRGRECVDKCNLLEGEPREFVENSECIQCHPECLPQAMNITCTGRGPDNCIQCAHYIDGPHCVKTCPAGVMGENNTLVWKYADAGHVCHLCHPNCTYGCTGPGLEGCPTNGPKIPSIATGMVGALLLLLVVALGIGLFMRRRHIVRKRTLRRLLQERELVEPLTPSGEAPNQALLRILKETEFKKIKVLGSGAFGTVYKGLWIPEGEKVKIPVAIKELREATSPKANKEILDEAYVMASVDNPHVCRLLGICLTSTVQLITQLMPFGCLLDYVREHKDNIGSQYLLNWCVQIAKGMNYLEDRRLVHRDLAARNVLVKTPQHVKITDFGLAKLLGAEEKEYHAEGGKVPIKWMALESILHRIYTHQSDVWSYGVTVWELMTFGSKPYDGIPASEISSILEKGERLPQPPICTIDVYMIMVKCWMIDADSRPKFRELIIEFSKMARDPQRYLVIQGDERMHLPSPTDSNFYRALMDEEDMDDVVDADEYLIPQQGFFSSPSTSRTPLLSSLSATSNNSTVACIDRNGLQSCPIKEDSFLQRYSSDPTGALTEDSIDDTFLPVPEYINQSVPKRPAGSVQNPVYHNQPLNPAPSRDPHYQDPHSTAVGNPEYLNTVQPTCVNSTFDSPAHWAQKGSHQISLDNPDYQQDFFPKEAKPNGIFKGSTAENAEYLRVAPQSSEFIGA
Sequence of PIK3CD (Human) (O00329 whole entry, looked up): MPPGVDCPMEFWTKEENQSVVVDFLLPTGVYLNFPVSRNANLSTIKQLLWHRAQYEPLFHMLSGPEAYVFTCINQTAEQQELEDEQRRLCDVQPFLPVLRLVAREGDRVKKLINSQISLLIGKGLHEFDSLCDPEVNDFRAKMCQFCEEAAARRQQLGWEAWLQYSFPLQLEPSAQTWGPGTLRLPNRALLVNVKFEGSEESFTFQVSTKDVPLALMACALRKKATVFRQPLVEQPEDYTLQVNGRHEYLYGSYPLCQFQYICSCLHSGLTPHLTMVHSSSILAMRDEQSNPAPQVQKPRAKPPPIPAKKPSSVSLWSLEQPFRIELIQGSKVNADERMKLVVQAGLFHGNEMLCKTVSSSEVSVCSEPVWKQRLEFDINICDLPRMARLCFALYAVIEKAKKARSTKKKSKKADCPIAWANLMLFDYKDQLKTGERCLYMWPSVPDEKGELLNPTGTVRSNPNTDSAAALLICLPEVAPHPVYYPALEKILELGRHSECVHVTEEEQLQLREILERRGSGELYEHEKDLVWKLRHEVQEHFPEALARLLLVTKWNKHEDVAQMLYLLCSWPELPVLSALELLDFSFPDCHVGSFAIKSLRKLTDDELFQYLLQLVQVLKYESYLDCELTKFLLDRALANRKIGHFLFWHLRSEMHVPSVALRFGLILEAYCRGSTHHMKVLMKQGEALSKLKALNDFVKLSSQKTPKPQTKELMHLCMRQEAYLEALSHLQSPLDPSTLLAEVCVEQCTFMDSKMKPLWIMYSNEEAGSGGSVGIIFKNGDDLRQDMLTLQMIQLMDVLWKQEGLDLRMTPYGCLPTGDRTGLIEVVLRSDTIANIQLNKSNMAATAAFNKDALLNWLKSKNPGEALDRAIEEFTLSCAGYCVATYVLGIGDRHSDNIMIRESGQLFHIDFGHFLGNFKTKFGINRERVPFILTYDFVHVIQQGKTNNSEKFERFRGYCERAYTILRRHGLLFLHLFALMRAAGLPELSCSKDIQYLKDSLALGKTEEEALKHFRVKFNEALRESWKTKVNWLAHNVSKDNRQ
Sequence of PIK3CB (Human) (P42338 whole entry, looked up): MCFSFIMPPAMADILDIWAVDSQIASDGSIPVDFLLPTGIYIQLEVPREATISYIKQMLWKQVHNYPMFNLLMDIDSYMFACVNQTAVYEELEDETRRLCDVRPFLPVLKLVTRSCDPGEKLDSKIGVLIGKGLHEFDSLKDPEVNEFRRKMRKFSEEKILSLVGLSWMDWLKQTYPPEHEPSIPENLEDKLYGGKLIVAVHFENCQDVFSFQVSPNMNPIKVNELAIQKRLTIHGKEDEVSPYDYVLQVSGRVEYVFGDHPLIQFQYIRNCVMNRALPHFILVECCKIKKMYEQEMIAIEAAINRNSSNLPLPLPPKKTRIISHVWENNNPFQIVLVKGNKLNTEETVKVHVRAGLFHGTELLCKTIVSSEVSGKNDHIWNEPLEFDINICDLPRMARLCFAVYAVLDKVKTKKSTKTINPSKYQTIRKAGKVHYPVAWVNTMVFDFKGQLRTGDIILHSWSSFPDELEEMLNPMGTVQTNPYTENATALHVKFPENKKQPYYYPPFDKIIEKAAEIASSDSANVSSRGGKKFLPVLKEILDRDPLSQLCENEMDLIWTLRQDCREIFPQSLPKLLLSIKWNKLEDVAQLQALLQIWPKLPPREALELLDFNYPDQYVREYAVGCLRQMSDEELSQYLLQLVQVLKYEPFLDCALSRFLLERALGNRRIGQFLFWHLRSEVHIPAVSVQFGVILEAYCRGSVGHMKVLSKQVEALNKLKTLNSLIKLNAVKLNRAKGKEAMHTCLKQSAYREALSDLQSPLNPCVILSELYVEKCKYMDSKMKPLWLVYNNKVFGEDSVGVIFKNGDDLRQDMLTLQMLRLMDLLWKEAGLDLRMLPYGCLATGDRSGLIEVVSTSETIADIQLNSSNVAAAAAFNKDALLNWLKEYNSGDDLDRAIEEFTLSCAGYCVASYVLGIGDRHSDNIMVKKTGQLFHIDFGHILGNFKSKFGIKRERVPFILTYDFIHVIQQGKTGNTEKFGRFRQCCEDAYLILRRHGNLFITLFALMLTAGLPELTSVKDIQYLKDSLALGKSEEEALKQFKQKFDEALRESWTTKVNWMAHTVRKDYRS
Sequence of MAPK14 (Q16539 whole entry, looked up): as the sequence (Q16539 whole entry, looked up) above
Sequence of EGFR (human) (P00533 whole entry, looked up): as the sequence (P00533 whole entry, looked up) above

`COC(=O)c1cc(NCc2cc(O)ccc2O)ccc1O`: the IC50 – broadly, the concentration that gives 50% inhibition – in the experiment with EGFR (Hamster) is 9 µM.

As to `O=C1NCN2N=C(Sc3ccccc3Br)C=CC2=C1c1c(Cl)cccc1Cl`, the IC50 against MAPK14 (human) [1] worked out at 0.24 µM; at MAPK14 (human) [2], 0.16 µM.

In the case of `COc1cc(F)ccc1-c1cc(Nc2cc(CS(C)(=O)=NC#N)ccn2)ncc1F` (stereo not given), the figures for the IC50 against CDK2 (human) [3] and against CDK2 (human) [4] were 0.072 µM and 1.42 µM, respectively.

`COc1cc2ncnc(Nc3ccc(NC(=O)NC4CCCCC4)cc3)c2cc1OC` displayed an IC50 at EGFR (human) [5] of 9.81 µM.

Regarding `C[C@H](NC(=O)c1c(N)nn2cccnc12)c1cc2cccc(Cl)c2c(=O)n1CCNS(=O)(=O)C(F)(F)F`, the IC50 against PIK3CA (human) [6] fell in the range of 1 to 10 µM; on PIK3CB (Human) [7], 1 to 10 µM; at PIK3CD (Human) [8], 1 to 10 µM; on PIK3CG (human) [9] it was 0.5 to 1 µM; on PIK3CD (Human) [10], 0.01 to 0.1 µM.

For the compound `CC(C)(Cc1ccccc1Br)Nc1nc(N2CCOCC2)nc(-n2c(C(F)F)nc3ccccc32)n1`, the IC50 against PIK3CG (human) [11] is 0.2 to 0.5 µM; on PIK3CD (Human) [12], less than 0.1 µM; against PIK3CB (Human) [13] it was less than 0.1 µM; at PIK3CD (Human) [14] it was less than 0.1 µM.

Take `O=C(Nc1nc(-c2ccncc2)cs1)C1COc2ccccc2O1` (stereo not given): the IC50 on ROCK2 (human) [15] was 0.04 µM; at ROCK2 (human) [16], less than 0.003 µM.

Turning to `N#Cc1cccc2c1nc(C(F)F)n2-c1nc(N2CCOCC2)nc(N2CCOCC2)n1`, the IC50 in experiment [17] and in experiment [18] was more than 20 µM throughout.

`COc1cc2ncc(C#N)c(Nc3cc(OC)c(OC)c(OC)c3)c2cc1OC` yielded an IC50 against EGFR [19] of 1.5 µM.

Turning to `N#CC(C#N)=C(N)/C(C#N)=C/c1ccc2ccccc2n1`, the IC50 at EGFR (human) [20] was determined as 1.7 µM.

Take `Brc1cccc(Nc2ncnc3ccccc23)c1`: the results for the IC50 (at EGFR [21]; in [22]) were 0.126 µM and 0.027 µM, respectively.

As to `COc1cc(N)nc2[nH]c(-c3ccc(F)cc3)c(-c3ccncc3)c12`, the inhibition (usually the drop in the measured response relative to a control, in per cent) in the experiment with MAPK14 (rat) came to 97%. Further, the activity at MAPK14 [23] came out at 6 nM.

Consider `Nc1c(C(=O)c2cccc(NC=NO)c2)cnn1-c1ccc(F)cc1`, for which the IC50 came to 1.45 µM against MAPK14 [24] and 0.17 µM against MAPK14 (human) [25]. The compound further gave an inhibition in experiment [26] of 76%.

At EGFR [27], `CO[C@H]1[C@@H](N(C)C2C=NC=CN2)C[C@@H]2O[C@@]1(C)n1c3ccccc3c3c4c(c5c6ccccc6n2c5c31)C(=O)NC4` (stereo not given in full) yielded an IC50 of 8.18 µM.

In experiment [28], `O=C(CCN1CCOCC1)Nc1ccc2ncnc(Nc3cccc(Br)c3)c2c1` yielded an IC50 of more than 20 µM.

Turning to `CC(C)(Cc1ccccc1C1CCN(S(C)(=O)=O)CC1)Nc1nc(N2CCOCC2)nc(-n2c(C(F)F)nc3ccccc32)n1`, at PIK3CA (human) [29], the IC50 lay in the range of 0.2 to 0.5 µM.

Regarding `CN1CCC(O)(c2nc(-c3ccc(F)cc3)c(-c3ccncc3)s2)CC1`, the inhibition in the experiment with MAPK14 (OF1 mice) was determined as 0%.

In the case of `O=C(Nc1cccc(Nc2nccc(-c3cccnc3)n2)c1)c1ccccc1S`, the IC50 at EGFR [30] is more than 50 µM.

As for `C=CC(=O)NCCN1C(=O)N(Cc2ccccc2)Cc2cnc(Nc3ccc(N4CCN(C)CC4)cc3OC)nc21`, in experiment [31], the IC50 is more than 10 µM.

In experiment [32], `Oc1cccc(-c2nc(N3CCOCC3)nc3c2CCN3c2cccnc2)c1` returned an IC50 of 0.45 µM.
